# In patent US20200368247A1, “CENICRIVIROC FOR THE TREATMENT OF FIBROSIS” (Tobira Therapeutics, Inc., priority 2014, published 2020):
# Experiments:
# Assay type in all cases: in vivo, human
# [1] = Study 202 post-hoc APRI and FIB-4 fibrosis index scores
# Experimental: APRI and FIB-4 scores were calculated. Change in score category from baseline (BL) to Weeks 24 and 48 was assessed in patients with non-missing data. Correlations between changes from BL in APRI and FIB-4 scores, and MCP-1 (CCR2 ligand) and sCD14 (inflammatory biomarker) levels were evaluated.
# [2] = Study 202 biomarkers of inflammation
# Experimental: As an exploratory analysis, levels of inflammation biomarkers MCP-1, sCD14, high sensitivity C-reactive protein [hs-CRP], interleukin-6 [IL-6], D-dimer, and fibrinogen) were measured. Baseline values and changes from baseline at Week 24 and Week 48 of MCP-1, sCD14, hs-CRP, IL-6, D-dimer, and fibrinogen are summarized in Table 25.
# The sCD14 samples were originally analyzed in 2 separate batches: Batch 1 included samples leading up to the Week 24 primary analysis and Batch 2 included Week 32 and Week 48 (end of study) samples. A repeat analysis of archived samples all analyzed in one batch was conducted for consistency in analysis across time points. To control for the effects of covariates, a linear mixed-model repeated-measures analysis was conducted on the changes from baseline in sCD14 (analysis dated September 2013).
# [3] = Study 202 fasting metabolic laboratory parameters
# Description: All abnormalities in total cholesterol, LDL cholesterol, triglycerides, or glucose were Grade 1 or Grade 2.
# Mean baseline values and changes from baseline in HbA1c, HOMA-IR, fasting LDL, fasting HDL, fasting total cholesterol, fasting total cholesterol/HDL ratio, and fasting triglycerides are shown in Table 36.
# [4] = All CVC (N = 115), EFV (N = 28), through Week 48
smiles,measurement,setting,value
"CCCCOCCOc1ccc(-c2ccc3c(c2)/C=C(/C(=O)Nc2ccc([S@@+]([O-])Cc4cncn4CCC)cc2)CCCN3CC(C)C)cc1 [CVC, (S)-8-[4-(2-Butoxyethoxy)phenyl]-1-isobutyl-N-(4-{[(1-propyl-1H-imidazol-5-yl)methyl]sulfinyl}phenyl)-1,2,3,4-tetrahydro-1-benzazocine-5-carboxamide]","APRI 0.5-1.5, patients",[1]; Baseline,14%
same,"APRI <0.5, patients",[1]; Baseline,84%
same,"APRI >1.5, patients",[1]; Baseline,2%
same,"FIB-4 1.45-3.25, patients",[1]; Baseline,17%
same,"FIB-4 <1.45, patients",[1]; Baseline,82%
same,"FIB-4 >3.25, patients",[1]; Baseline,1%
same,"APRI 0.5-1.5, patients",[1]; Week 24,7%
same,"APRI <0.5, patients",[1]; Week 24,93%
same,"APRI decreased 1 category from baseline, patients",[1]; Week 24,14%
same,"FIB-4 1.45-3.25, patients",[1]; Week 24,7%
same,"FIB-4 <1.45, patients",[1]; Week 24,93%
same,"FIB-4 decreased 1 category from baseline, patients",[1]; Week 24,13%
same,"APRI 0.5-1.5, patients",[1]; Week 48,8%
same,"APRI <0.5, patients",[1]; Week 48,91%
same,"APRI >1.5, patients",[1]; Week 48,1%
same,"APRI decreased 1 category from baseline, patients",[1]; Week 48,10%
same,"FIB-4 1.45-3.25, patients",[1]; Week 48,5%
same,"FIB-4 <1.45, patients",[1]; Week 48,94%
same,"FIB-4 >3.25, patients",[1]; Week 48,1%
same,"FIB-4 decreased 1 category from baseline, patients",[1]; Week 48,14%
same,subjects with improvements in APRI and FIB-4 scores over time,[1]; pooled CVC 100 mg and 200 mg,≥ 10%
same,"sCD14 Baseline value, Mean",[2]; CVC 100 mg,1.8e+06 pg/mL
same,"sCD14 change from baseline at Week 12, Mean",[2]; CVC 100 mg,-140000 pg/mL
same,"sCD14 change from baseline at Week 12, Median",[2]; CVC 100 mg,-160000 pg/mL
same,"sCD14 change from baseline at Week 24, Mean",[2]; CVC 100 mg,-190000 pg/mL
same,"sCD14 change from baseline at Week 24, Median",[2]; CVC 100 mg,-180000 pg/mL
same,"sCD14 change from baseline at Week 32, Mean",[2]; CVC 100 mg,110000 pg/mL
same,"sCD14 change from baseline at Week 32, Median",[2]; CVC 100 mg,120000 pg/mL
same,"sCD14 change from baseline at Week 48, Mean",[2]; CVC 100 mg,100000 pg/mL
same,"sCD14 change from baseline at Week 48, Median",[2]; CVC 100 mg,100000 pg/mL
same,"sCD14 change from baseline at Week 12, Mean",[2]; CVC 200 mg,-230000 pg/mL
same,"sCD14 change from baseline at Week 12, Median",[2]; CVC 200 mg,-210000 pg/mL
same,"sCD14 change from baseline at Week 24, Mean",[2]; CVC 200 mg,-230000 pg/mL
same,"sCD14 change from baseline at Week 24, Median",[2]; CVC 200 mg,-190000 pg/mL
same,"sCD14 change from baseline at Week 32, Mean",[2]; CVC 200 mg,-20000 pg/mL
same,"sCD14 change from baseline at Week 32, Median",[2]; CVC 200 mg,-20000 pg/mL
same,"sCD14 change from baseline at Week 48, Mean",[2]; CVC 200 mg,-40000 pg/mL
same,"sCD14 change from baseline at Week 48, Median",[2]; CVC 200 mg,-40000 pg/mL
same,plasma MCP-1 over time,"[2]; Study 202, up to Week 48",increases over time
same,"Any fasting laboratory abnormality, worst Grade 1",[3]; [4],9 (8%) n (%)
same,"Any fasting laboratory abnormality, worst Grade 2",[3]; [4],7 (6%) n (%)
same,"Any fasting laboratory abnormality, worst Grade 3",[3]; [4],0 n (%)
same,"Any fasting laboratory abnormality, worst Grade 4",[3]; [4],0 n (%)
same,Any graded (Grade 1-4) fasting laboratory abnormality,[3]; [4],16 (14%) n (%)
same,"Fasting LDL cholesterol abnormality, Grade 1",[3]; [4],3 (3%) n (%)
same,"Fasting LDL cholesterol abnormality, Grade 2",[3]; [4],3 (3%) n (%)
same,"Fasting LDL cholesterol abnormality, Grade 3",[3]; [4],0 n (%)
same,"Fasting LDL cholesterol abnormality, Grade 4",[3]; [4],0 n (%)
same,"Fasting LDL cholesterol abnormality, any grade",[3]; [4],6 (5%) n (%)
same,"Fasting glucose (serum, high) abnormality, Grade 1",[3]; [4],3 (3%) n (%)
same,"Fasting glucose (serum, high) abnormality, Grade 2",[3]; [4],2 (2%) n (%)
same,"Fasting glucose (serum, high) abnormality, Grade 3",[3]; [4],0 n (%)
same,"Fasting glucose (serum, high) abnormality, Grade 4",[3]; [4],0 n (%)
same,"Fasting glucose (serum, high) abnormality, any grade",[3]; [4],5 (4%) n (%)
same,"Fasting total cholesterol abnormality, Grade 1",[3]; [4],5 (4%) n (%)
same,"Fasting total cholesterol abnormality, Grade 2",[3]; [4],3 (3%) n (%)
same,"Fasting total cholesterol abnormality, Grade 3",[3]; [4],0 n (%)
same,"Fasting total cholesterol abnormality, Grade 4",[3]; [4],0 n (%)
same,"Fasting total cholesterol abnormality, any grade",[3]; [4],8 (7%) n (%)
same,"Fasting triglycerides abnormality, Grade 1",[3]; [4],0 n (%)
same,"Fasting triglycerides abnormality, Grade 2",[3]; [4],1 (<1%) n (%)
same,"Fasting triglycerides abnormality, Grade 3",[3]; [4],0 n (%)
same,"Fasting triglycerides abnormality, Grade 4",[3]; [4],0 n (%)
same,"Fasting triglycerides abnormality, any grade",[3]; [4],1 (<1%) n (%)
same,"Fasting triglycerides, mean change from baseline","[3]; All CVC, EFV, Week 4",-5 mg/dL
same,"HOMA-IR, mean change from baseline","[3]; All CVC, EFV, Week 4",−0.30
